Laboratory results taken from the supplement of paper PMC6045584.
± gives the standard deviation of the averaged measurements.

What was measured:
[1] = compound: C[C@@H](Oc1cc(-c2cnn(C3CCNCC3)c2)cnc1N)c1c(Cl)ccc(F)c1Cl; experiment: surviving fraction relative to DMSO-only wells; higher = less growth inhibition; settings: exposure time: 5 days
Outline: (§1)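 Log-phase tumour cell lines, 250–500 cells per well in 384-well plates, received inhibitors at 0.5, 1, 5, 10, 50, 100, 500 and 1000 nM continuously for five days, starting 24 hours after seeding. Viability was quantified with CellTiter-Glo luminescence and normalised to the median of DMSO-only wells to give surviving fraction. Three screens were run per line, and a line stayed in only with replicate Pearson r >0.7 and median Z' >0.3.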

[2] = compound: CNCc1ccc(-c2[nH]c3cc(F)cc4c3c2CCNC4=O)cc1; experiment: as above; settings: exposure time: 5 days
Outline: as §1

Row | Test System | surviving fraction ([1]; 0.5 nM) | surviving fraction ([1]; 5 nM) | surviving fraction ([1]; 10 nM) | surviving fraction ([1]; 50 nM) | surviving fraction ([1]; 100 nM) | surviving fraction ([1]; 500 nM) | surviving fraction ([1]; 1000 nM) | surviving fraction ([2]; 0.5 nM) | surviving fraction ([2]; 1 nM) | surviving fraction ([2]; 5 nM) | surviving fraction ([2]; 10 nM) | surviving fraction ([2]; 50 nM) | surviving fraction ([2]; 100 nM) | surviving fraction ([2]; 500 nM) | surviving fraction ([2]; 1000 nM) | surviving fraction ([1]; 1 nM)
1 | CME SYNOVIAL | 0.902 ± 0.043 | 0.98 ± 0.25 | 0.902 ± 0.12 | 1.04 ± 0.04 | 1.06 ± 0.14 | 0.634 ± 0.054 | 0.272 ± 0.007 | 1.16 ± 0.072 | 1.25 ± 0.097 | 1.11 ± 0.18 | 1.11 ± 0.18 | 0.693 ± 0.18 | 0.556 ± 0.094 | 0.373 ± 0.08 | 0.301 ± 0.015 | –
2 | MDAMB361 BREAST | 0.779 ± 0.017 | 0.807 ± 0.043 | – | – | 0.858 ± 0.026 | 1.04 ± 0.053 | 1.02 ± 0.047 | 0.709 ± 0.074 | 0.752 ± 0.04 | 0.672 ± 0.041 | 0.69 ± 0.0053 | 0.543 ± 0.065 | 0.615 ± 0.082 | 0.553 ± 0.09 | 0.589 ± 0.063 | 0.768 ± 0.029
3 | MCF7 BREAST | 0.826 ± 0.063 | 0.827 ± 0.046 | 0.802 ± 0.03 | 0.89 ± 0.021 | 0.834 ± 0.034 | 0.755 ± 0.011 | 0.511 ± 0.017 | 0.923 ± 0.057 | 0.927 ± 0.072 | 0.921 ± 0.086 | 0.918 ± 0.084 | 0.951 ± 0.058 | 0.93 ± 0.081 | 0.865 ± 0.0098 | 0.924 ± 0.043 | 0.818 ± 0.027
4 | CAL120 BREAST | 0.912 ± 0.011 | 0.908 ± 0.029 | 0.898 ± 0.02 | – | 0.935 ± 0.017 | 0.676 ± 0.091 | 0.547 ± 0.013 | 1.04 ± 0.047 | 0.995 ± 0.075 | 0.984 ± 0.044 | 1.01 ± 0.043 | 0.945 ± 0.026 | 0.929 ± 0.056 | 0.926 ± 0.057 | 0.918 ± 0.043 | –
5 | HU09 BONE | – | – | 0.95 ± 0.07 | – | 0.841 ± 0.014 | 0.388 ± 0.053 | 0.197 ± 0.018 | 1.04 ± 0.068 | 0.977 ± 0.052 | 1.04 ± 0.072 | 0.991 ± 0.066 | 0.965 ± 0.24 | 0.889 ± 0.13 | 0.757 ± 0.051 | 0.669 ± 0.074 | 0.889 ± 0.033
6 | JIMT1 BREAST | 0.869 ± 0.035 | 0.893 ± 0.04 | 0.862 ± 0.033 | 0.971 ± 0.045 | 0.959 ± 0.038 | 0.634 ± 0.075 | 0.517 ± 0.042 | 0.948 ± 0.055 | 0.945 ± 0.052 | 0.98 ± 0.067 | 0.9615 ± 0.0036 | 0.881 ± 0.045 | 0.885 ± 0.05 | 0.864 ± 0.031 | 0.856 ± 0.054 | 0.834 ± 0.024
7 | SG31 HEADNECK | – | 0.821 ± 0.059 | 0.843 ± 0.18 | 0.847 ± 0.063 | 0.845 ± 0.088 | 0.755 ± 0.061 | 0.485 ± 0.07 | 1.31 ± 0.25 | 1.14 ± 0.13 | 1.11 ± 0.15 | 1.12 ± 0.092 | 0.922 ± 0.12 | 0.845 ± 0.061 | 0.929 ± 0.12 | 0.947 ± 0.09 | 0.821 ± 0.04
8 | SNU475 LIVER | 0.8177 ± 0.0046 | 0.829 ± 0.049 | – | 0.927 ± 0.039 | – | 0.853 ± 0.031 | 0.662 ± 0.04 | 0.999 ± 0.052 | 0.982 ± 0.039 | 0.992 ± 0.065 | 0.99 ± 0.026 | 0.919 ± 0.027 | 0.916 ± 0.028 | 0.863 ± 0.053 | 0.892 ± 0.043 | –
9 | CASKI CERVIX | 0.829 ± 0.056 | 0.816 ± 0.011 | – | 0.925 ± 0.022 | 0.88 ± 0.014 | 0.308 ± 0.018 | 0.303 ± 0.036 | 0.893 ± 0.022 | 0.968 ± 0.014 | 0.992 ± 0.015 | 0.939 ± 0.024 | 0.89 ± 0.03 | 0.898 ± 0.077 | 0.923 ± 0.12 | 0.848 ± 0.034 | 0.782 ± 0.081
10 | SUM149.B1*.S BREAST | 0.902 ± 0.028 | 0.921 ± 0.037 | 0.904 ± 0.04 | 0.96 ± 0.032 | 0.929 ± 0.037 | 0.855 ± 0.056 | 0.729 ± 0.051 | 1.12 ± 0.023 | 1.1 ± 0.022 | 1.07 ± 0.045 | 1.1 ± 0.045 | 1.01 ± 0.04 | 1.02 ± 0.033 | 0.94 ± 0.053 | 1 ± 0.056 | 0.898 ± 0.036
11 | OS25HAL BONE | 0.913 ± 0.013 | 0.92 ± 0.015 | 0.9 ± 0.014 | 0.969 ± 0.017 | 0.937 ± 0.016 | 0.813 ± 0.1 | 0.285 ± 0.043 | 0.98 ± 0.029 | 1.1 ± 0.024 | 1.017 ± 0.01 | 1.01 ± 0.032 | 0.954 ± 0.034 | 1.01 ± 0.052 | 1.003 ± 0.0071 | 0.98 ± 0.039 | –
